In PubChem BioAssay AID624167 (Sanford-Burnham Center for Chemical Genomics, 2012):
pIC50: −log10 of the molar value. Activity calls are given as the source filed them.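 Rule for the calls: active = mean IC50 for reducing PEG3 promoter reporter signal at or below a set limit, with IC50 above the limit in both counter screens; inactive = the rest, including counter screen hits.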

How the values were obtained:
GAPDH = assay: Peg3 promoter luciferase inhibitors, potency, dose response, cell-based, HeLa, CREF/GAPDH counter-screen panel (AID 624167); details: CREF/GAPDH counter-screens
Rat fibroblasts (CREF) = assay: as above; details: CREF/GAPDH counter-screens
PEG-3 [1] = biological target: PEG-3 (UniProt Q6IN02); assay: as above; details: HeLa PEG-Prom luciferase reporter, overnight, CREF/GAPDH counter-screens, mean of runs
Chain of PEG-3 (UniProt Q6IN02) (Q6IN02 whole entry, looked up): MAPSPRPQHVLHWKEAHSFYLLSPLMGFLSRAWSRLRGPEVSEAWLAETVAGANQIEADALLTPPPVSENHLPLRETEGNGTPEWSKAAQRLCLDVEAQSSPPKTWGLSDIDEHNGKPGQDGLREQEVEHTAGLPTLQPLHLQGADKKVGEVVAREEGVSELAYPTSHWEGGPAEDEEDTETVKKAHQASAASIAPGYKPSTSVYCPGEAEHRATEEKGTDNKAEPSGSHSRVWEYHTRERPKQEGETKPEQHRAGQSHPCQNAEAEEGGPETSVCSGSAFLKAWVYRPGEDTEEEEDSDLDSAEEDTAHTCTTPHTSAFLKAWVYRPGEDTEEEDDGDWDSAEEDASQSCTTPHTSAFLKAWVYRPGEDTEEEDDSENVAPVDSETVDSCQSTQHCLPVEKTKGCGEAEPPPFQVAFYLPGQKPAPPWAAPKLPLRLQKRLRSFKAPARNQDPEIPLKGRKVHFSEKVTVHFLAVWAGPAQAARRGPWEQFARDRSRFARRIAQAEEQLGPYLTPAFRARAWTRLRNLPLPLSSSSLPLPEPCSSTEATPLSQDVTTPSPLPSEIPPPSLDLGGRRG

[2] = as above; details: CREF/GAPDH counter-screens; GAPDH; mean of runs
PEG-3 [3] = assay: as above; details: HeLa PEG-Prom luciferase reporter, overnight, CREF/GAPDH counter-screens
[4] = run 1, dose range 1, individual replicate IC50 per panel
[5] = run 2, dose range 1, individual replicate IC50 per panel

| Structure (SMILES) | pIC50 (GAPDH; [4]) | pIC50 (GAPDH; [5]) | IC50 (Rat fibroblasts (CREF); mean of runs) | pIC50 (Rat fibroblasts (CREF); [4]) | pIC50 (Rat fibroblasts (CREF); [5]) | pIC50 (PEG-3 [1]) | IC50 [2] | pIC50 (PEG-3 [3]; [4]) | pIC50 (PEG-3 [3]; [5]) | pIC50 (Rat fibroblasts (CREF); mean of runs) | IC50 (PEG-3 [1]) | pIC50 [2] |
| --- | --- | --- | --- | --- | --- | --- | --- | --- | --- | --- | --- | --- |
| CS(=O)(=O)Nc1cccc(NC(=O)C2Cc3c(-c4ccccc4)ccnc3O2)c1 (centres undefined) | < 4.00 | 4.06 | > 100 µM (inactive) | < 4.00 | < 4.00 | 5.13 | inactive | 5.14 | 5.12 |  |  |  |
| CCCCCCCn1c(=N)n(CC(=O)c2ccco2)c2ccccc21 | 4.57 | 4.46 |  | 4.53 | 4.49 |  | inactive | 6.40 | < 4.00 | 4.51 | inactive |  |
| O=C(CCSc1nc2ccccc2s1)N/N=C/c1c(O)ccc2ccccc12 | < 4.00 | < 4.00 | > 100 µM (inactive) | < 4.00 | < 4.00 | 5.37 | > 100 µM (inactive) | 5.23 | 5.57 |  |  |  |
| O=C(O)c1ccc(N/N=C/c2ccc(OC(=O)c3cccc(Cl)c3)cc2)cc1 | 6.26 | 5.23 | > 100 µM (inactive) | < 4.00 | < 4.00 | 5.02 |  | 5.20 | 4.89 |  |  | 5.49 |
| C=CCn1c(C)cc(C(=O)COc2ccc(C)nc2[N+](=O)[O-])c1C | 5.06 | 4.41 | > 100 µM (inactive) | < 4.00 | < 4.00 | 5.85 |  | 5.81 | 5.90 |  |  | 4.62 |
| COC(=O)C1C=CC(OC2OC(COC(C)=O)C(OC(C)=O)C(OC(C)=O)C2OC(C)=O)n2c(=O)n(-c3ccccc3)c(=O)n21 (centres undefined) | 4.71 | 4.75 |  | 5.17 | 5.03 | 5.04 |  | 4.99 | 5.09 | 5.09 |  | 4.73 |
| CN1OC[C@@H]2CN(S(=O)(=O)c3cccc(C(F)(F)F)c3)[C@H](c3ccc(-c4cc5ccccc5o4)cc3)C[C@@H]21 | 4.35 | 4.42 | > 100 µM (inactive) | < 4.00 | < 4.00 | 5.00 | inactive | 4.73 | 5.97 |  |  |  |
| O=C(O)c1ccc(N/N=C/c2ccc3c(c2)OCO3)cc1 | 5.86 | 5.57 | 52.3 µM (inactive) | 4.24 | 4.33 | 5.81 |  | 5.91 | 5.72 |  |  | 5.69 |
| CCC(c1ccc(O)c(O)c1)C(CC)c1ccc(O)c(O)c1 (centres undefined) | 4.45 | 4.47 |  | 4.64 | 4.78 | 5.00 | inactive | 4.85 | 5.25 | 4.70 |  |  |
| CS(=O)(=O)Nc1cccc(NC(=O)C2Cc3c(-c4cccc(F)c4)ccnc3O2)c1 (centres undefined) | < 4.00 | 4.35 | > 100 µM (inactive) | < 4.00 | < 4.00 | 5.54 | inactive | 5.51 | 5.58 |  |  |  |
| Cc1cc(C(=O)Nc2cccc(C(=O)O)c2)oc1C | 5.18 | 4.80 | > 100 µM (inactive) | < 4.00 | < 4.00 | 5.05 |  | 5.17 | 4.95 |  |  | 4.95 |
| CCOC(=O)c1c(SCCN2CCCCC2)n(-c2ccccc2)c(=S)n(-c2ccccc2)c1=O | 4.73 | 4.73 |  | 4.89 | 4.84 | 5.14 |  | 4.99 | 5.36 | 4.87 |  | 4.73 |
| CN(C(=O)COC(=O)/C=C/c1cccc([N+](=O)[O-])c1)C1CCS(=O)(=O)C1 (centres undefined) | < 4.00 | < 4.00 | > 100 µM (inactive) | < 4.00 | < 4.00 | 6.34 | > 100 µM (inactive) | 6.34 | 6.34 |  |  |  |
| OCCCNc1nccc(-c2cc(Nc3cccc(Cl)c3)ncn2)n1 | < 4.00 | 6.04 | 59.6 µM (inactive) | 4.72 | < 4.00 | 6.30 | inactive | 6.18 | 6.48 |  |  |  |
| CN1C/C(=C/c2ccccc2[N+](=O)[O-])C(=O)/C(=C\c2ccccc2[N+](=O)[O-])C1 | < 4.00 | 4.10 |  | 4.52 | 4.60 | 5.23 | inactive | 5.25 | 5.21 | 4.56 |  |  |
| O=C(CCl)N1c2ccccc2Sc2ccc3ccccc3c21 | 4.57 | 4.63 |  | 4.61 | 4.55 | 5.06 |  | 4.91 | 5.29 | 4.58 |  | 4.60 |
